Measured values as given in patent publication US9073858B2, “Methods of targeted drug development” (priority 2010, dated 2015).
pIC50: −log10 of the molar value. Where two headings read alike, the source gives them in different places.

Key:
[1] = test system: epithelial carcinoma A431 cell line; assay: MTT Cell Proliferation Assay, A431 cell line; assay type: cell-based; settings: 72 h
Procedure, shortened: (§1)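 Cells plated overnight, then exposed 3 days at 37 °C, 5% CO2 to compound in growth medium with 0.5% FBS and 0.5% DMSO final (0.5% DMSO as control).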

[2] = test system: MDBK line; assay: MTT Cell Proliferation Assay, MDBK line; assay type: cell-based, bovine; settings: 72 h; second value of A431/MDBK pair; read-out: MTT-72 h MDBK
Procedure, shortened: as §1

[3] = biological target: T1, EGFR (Homo sapiens, UniProt P00533); assay: EGFR in-cell Western (ICW) screening protocol; assay type: cell-based; set-up: unit not given here; settings: listed as 1505
T1 construct: endogenous in cells; host or cells: A431 cells (ATCC CRL-1555)
T1 sequence (P00533 25-1210): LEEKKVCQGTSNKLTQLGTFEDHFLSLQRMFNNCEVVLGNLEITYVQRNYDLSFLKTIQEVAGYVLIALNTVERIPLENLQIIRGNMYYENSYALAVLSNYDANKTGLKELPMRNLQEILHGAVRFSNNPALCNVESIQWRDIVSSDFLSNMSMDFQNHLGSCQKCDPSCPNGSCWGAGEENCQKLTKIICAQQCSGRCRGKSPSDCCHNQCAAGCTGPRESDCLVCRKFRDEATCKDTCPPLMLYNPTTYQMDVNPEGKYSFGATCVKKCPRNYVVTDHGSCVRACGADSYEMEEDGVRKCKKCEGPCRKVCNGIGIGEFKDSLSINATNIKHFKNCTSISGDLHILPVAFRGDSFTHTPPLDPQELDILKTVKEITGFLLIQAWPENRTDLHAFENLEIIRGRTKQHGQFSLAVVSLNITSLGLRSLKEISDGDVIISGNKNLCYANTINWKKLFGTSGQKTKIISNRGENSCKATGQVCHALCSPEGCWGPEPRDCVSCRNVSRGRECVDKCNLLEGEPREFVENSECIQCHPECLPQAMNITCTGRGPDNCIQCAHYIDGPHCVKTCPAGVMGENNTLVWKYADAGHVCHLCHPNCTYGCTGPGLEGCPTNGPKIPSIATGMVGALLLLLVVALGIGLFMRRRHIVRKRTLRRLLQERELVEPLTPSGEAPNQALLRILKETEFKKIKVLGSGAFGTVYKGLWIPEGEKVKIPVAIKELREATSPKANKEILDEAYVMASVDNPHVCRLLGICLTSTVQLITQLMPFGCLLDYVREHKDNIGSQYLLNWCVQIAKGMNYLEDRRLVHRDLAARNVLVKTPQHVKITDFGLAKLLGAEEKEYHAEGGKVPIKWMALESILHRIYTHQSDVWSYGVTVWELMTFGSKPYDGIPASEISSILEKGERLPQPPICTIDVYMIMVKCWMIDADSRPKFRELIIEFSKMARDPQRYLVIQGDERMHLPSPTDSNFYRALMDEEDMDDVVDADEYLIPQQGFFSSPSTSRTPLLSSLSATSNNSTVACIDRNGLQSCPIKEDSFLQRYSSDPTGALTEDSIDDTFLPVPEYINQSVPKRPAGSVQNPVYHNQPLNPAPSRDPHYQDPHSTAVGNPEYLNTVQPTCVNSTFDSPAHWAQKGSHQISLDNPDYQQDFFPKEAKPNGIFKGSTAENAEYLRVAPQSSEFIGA
Procedure, shortened: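 Serum-starved cells treated with compound 4 h at 37 °C, then stimulated with EGF (20 or 0 ng/ml solution added) in its continued presence. In-cell Western on fixed cells: phospho-EGFR (800 channel) normalised to total EGFR (700 channel), % inhibition calculated against EGF-stimulated and unstimulated no-compound wells.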

[4] = test system: EGF receptor-mediated cell proliferation; assay: Combinatorial studies with known EGFR inhibitors, median effect analysis (MTT assay); settings: for DRI @ ED97: Dose Reduction Index
Protocol: Studies were initiated to evaluate the ability of various compounds disclosed herein to synergize with several compounds known to inhibit the function of the EGF receptor in a cell proliferation assay (MTT assay).
The EGFR inhibitor and AD4 compound dilutions were then mixed 1:1 in a 96 well plate. 50 μl of the mix was then added to the cell plate.
A shifting of the inhibitor curve to the left indicates an increase in the effectiveness of the AD4-compound.

[5] = biological target: T2, EGF binding site, rat liver membranes (Rattus norvegicus, UniProt G3V6K6); assay: Inhibition of [125I]EGF binding (NovaScreen EGF inhibitor assay)
T2 construct: Receptor source was rat liver membranes; tissue NovaScreen BioSciences; host or cells: rat liver membranes
T2 sequence (G3V6K6 25-1209): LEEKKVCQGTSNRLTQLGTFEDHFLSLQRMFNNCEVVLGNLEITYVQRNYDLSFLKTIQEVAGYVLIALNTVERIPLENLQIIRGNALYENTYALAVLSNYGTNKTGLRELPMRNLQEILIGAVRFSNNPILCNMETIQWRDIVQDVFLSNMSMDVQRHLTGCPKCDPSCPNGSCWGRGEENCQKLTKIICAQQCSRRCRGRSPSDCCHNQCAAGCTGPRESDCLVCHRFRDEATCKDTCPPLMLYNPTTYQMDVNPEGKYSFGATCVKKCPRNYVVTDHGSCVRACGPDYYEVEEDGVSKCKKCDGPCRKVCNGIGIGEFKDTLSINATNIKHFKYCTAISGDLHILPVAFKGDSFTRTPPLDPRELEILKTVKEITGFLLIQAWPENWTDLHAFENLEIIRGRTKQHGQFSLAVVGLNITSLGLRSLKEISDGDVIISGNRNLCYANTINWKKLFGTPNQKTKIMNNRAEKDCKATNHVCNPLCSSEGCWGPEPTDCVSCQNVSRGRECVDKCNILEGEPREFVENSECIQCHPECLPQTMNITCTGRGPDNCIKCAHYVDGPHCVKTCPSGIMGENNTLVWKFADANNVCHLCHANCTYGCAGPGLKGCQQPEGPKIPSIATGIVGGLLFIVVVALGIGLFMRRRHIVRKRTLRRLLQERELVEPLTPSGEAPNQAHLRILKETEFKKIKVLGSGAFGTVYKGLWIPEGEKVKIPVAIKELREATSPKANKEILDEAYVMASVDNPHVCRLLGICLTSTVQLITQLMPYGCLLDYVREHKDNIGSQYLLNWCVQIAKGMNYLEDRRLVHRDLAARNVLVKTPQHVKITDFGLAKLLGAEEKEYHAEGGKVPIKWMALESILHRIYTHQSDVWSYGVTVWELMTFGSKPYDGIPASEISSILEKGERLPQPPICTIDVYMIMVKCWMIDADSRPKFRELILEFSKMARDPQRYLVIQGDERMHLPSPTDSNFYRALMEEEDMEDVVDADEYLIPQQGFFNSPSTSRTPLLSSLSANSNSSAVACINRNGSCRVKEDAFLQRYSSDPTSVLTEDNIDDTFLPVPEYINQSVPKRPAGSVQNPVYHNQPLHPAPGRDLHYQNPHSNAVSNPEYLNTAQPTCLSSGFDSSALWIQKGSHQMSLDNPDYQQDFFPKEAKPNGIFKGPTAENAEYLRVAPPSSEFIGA
Protocol: Identified compounds, representing various pharmacaphore models, were tested for ability to inhibit EGFR at 25 μM.
AD4-compounds were identified using pharmacophore models (see Example 3) and then were docked with the binding site of EGFR (SEQ ID NO: 1) that is recognized by defined CDRs of cetuximab.
Receptor source was rat liver membranes. The radioligand was [^125I]EGF ([…]) at a final ligand concentration of 0.36 nM. A non-specific determinant was used as EGF—[100 nM]. The reference compound and positive control was EGF. Reactions were carried out in 10 mM HEPES (pH 7.4) containing 0.1% BSA at 25° C. for 60 minutes. The reaction was terminated by rapid vacuum filtration onto glass fiber filters. Radioactivity trapped onto the filters was determined and compared to control values to ascertain any interactions of test compounds with the EGF binding site. The EGF inhibitor assays were modified from, for example, Mukku (1984) J. Biol. Chem. 259, 6543-6546; Duh et al. (1990) World J. Surgery 14, 410-418; Lokeshwar et al. (1989) J. Biol. Chem. 264(32), 19318-19326.

[6] = Stability on incubation with mouse liver microsomes (MLM); assay type: in vitro ADME; settings: percentage left after incubation with mouse liver microsomes for 30 minutes
Procedure, shortened: (§2)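 Values are percent compound remaining after 30 min incubation with mouse or human liver microsomes.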

[7] = test system: annexin V in A549 cells; settings: for % Total Apoptosis: cells in early- and late-stage apoptosis; for % Relative to Reference Cpd.: reference 4.0 μM camptothecin or 1.0 μM staurosporin
Text: Assays that measure apoptosis are utilized to determine whether or not compounds can induce programmed cell death in cancer cells. Annexin V is a protein that is used to detect apoptosis by binding to phosphatidylserine expressed on membranes of dead or dying cells. Fluorescently tagged with FITC, it can he used in conjunction with 7-aminoactinomycin D to determine the percentage of cells undergoing apoptosis via flow cytometry. Cells in early apoptosis will emit an FITC signal which will eventually be replaced by the far red 7-AAD signal that is associated with cell membrane permeability due to necrosis.
In brief, for the Annexin V Assay, compounds were added to cells plated in 6-well plates. Treated cells were incubated for up to 30 hours before addition of fluorescent cell marker probes that detect the presence of annexin V. The percentage of cells undergoing apoptosis and necrosis were determined by flow cytometry.
On day 2, working solutions of compounds (at 1000×) were prepared. To 2.0 ml media/well was added 2 μl 1000× compound diluted in 100% DMSO for final DMSO concentration of 0.1%. On day 3, plates were incubated for 30 hrs. […] Cells were collected by centrifugation at 300×g for 5 min.
Resuspended cells were stored at 4° C. in the dark, until flow cytometry analysis.
For flow cytometry analysis of the Annexin V Assay, sample acquisition was on the BD LSR II manufactured by BD Biosciences, San Jose, Calif. […] 10,000 events werer collected based on a stopping gate of forward scatter vs side scatter light. Acquisition was done through BD FACS DiVa software version 6.1.1 on high flow rate (60 μL/min). Calculations were as follows: Quadrant 3=lower left=live cells; Quadrant 4=lower right=early apoptosis; Quadrant 2=upper right=late apoptosis; Quadrant 1=upper left=dead cells. Percent (%)Total apoptosis was calculated as early (quadrant 4)+late (quadrant 2). Percent (%) ratio apoptosis was calculated as (experimental-No treatment/positive control)*100. All statistical analyses are done using GraphPad Prism or Microsoft Excel.

[8] = test system: A549 cells; assay: A549 Cell Proliferation Assay (MTT); assay type: cell-based; settings: Homo sapiens, A549, 72 h, read-out: IC50 Value (μM) A549 Cells
[9] = test system: HT-29 cells; assay: HT-29 Cell Proliferation Assay (MTT); assay type: cell-based; settings: Homo sapiens, HT-29, 72 h, read-out: IC50 Value (μM) HT-29 Cells
[10] = Stability on incubation with human liver microsomes (HLM); assay type: in vitro ADME; settings: percentage left after incubation with human liver microsomes for 30 minutes
Procedure, shortened: as §2

[11] = test system: H1975 cells; assay: H1975 Cell Proliferation Assay (MTT); assay type: cell-based; settings: Homo sapiens, NCI-H1975, 72 h, read-out: IC50 Value (μM) H1975 Cells
[12] = test system: DNA fragmentation in A549 cells; assay: DNA Fragmentation Assay (Cell Death Detection ELISA); assay type: cell-based; settings: Caspase, DNA Fragmentation, Annexin-V

## COc1ccc(C(Nc2cc(C)ccn2)c2ccc3cccnc3c2O)cc1O (stereo not drawn) [AD4-1505]
[1]; first value of A431/MDBK pair, read-out: MTT-72 h A431
  pIC50: 5.08
[1]; value in brackets, numerically MDBK value over A431 value, listed as 1505
  MTT-72 h A431/MDBK (ratio): 1.12
[2]
  pIC50: 5.03
[3]; initial screen
  ICW Screen: 55.71
[3]; re-test
  ICW Re-Test: 47.05
[4]; Combination Index with Iressa at 90% inhibition
  CI @ ED90: 0.59
[4]; Combination Index with Tykerb at 90% inhibition
  CI @ ED90: 0.10
[4]; effect of the test compound on Iressa
  DRI @ ED97: 78
[4]; effect of the test compound on Tykerb
  DRI @ ED97: 203
[4]; based on CI value
  synergy with Iressa: shows synergy
  synergy with Tykerb: significant synergy
[4]; in combination with Tykerb
  shift in Tykerb's dose-response curve: leftward shift (i.e., greater potency)
[4]; read-out: IC50 Iressa + Compound (nM)
  IC50: 133 nM
[5]
  inhibition of epidermal growth factor binding: inhibitor of epidermal growth factor binding to its receptor

## Cc1cc(Cl)cnc1NC(c1cccc(Cl)c1Cl)c1ccc2cccnc2c1O (stereo not drawn) [AD4-13147]
[6]
  MLM % Remaining@ 30 Min: 44%
[7]; 1 μM, A549 cells
  % Total Apoptosis: 29%
[7]; 10 μM, A549 cells
  % Total Apoptosis: 28%
[8]
  IC50: 0.11 µM
[9]
  IC50: 0.77 µM
[10]
  HLM % Remaining@ 30 Min: 98%
[11]
  IC50: 0.29 µM

## Oc1c(C(Nc2cc(Cl)c(Cl)cn2)c2ccc(F)cc2Cl)ccc2cccnc12 (stereo not drawn) [AD4-13185]
[6]
  MLM % Remaining@ 30 Min: 57%
[7]; 1 μM, A549 cells, FIG. 16B
  apoptosis, share of the cell population: greater than 50%
[7]; 1 μM, A549 cells
  % Total Apoptosis: 42%
[7]; 1 μM
  % Relative to Reference Cpd.: 161%
[7]; 10 μM, A549 cells, FIG. 16B
  late apoptosis, share of the cell population: up to 20%
[7]; 10 μM, A549 cells
  % Total Apoptosis: 30%
[7]; 10 μM
  % Relative to Reference Cpd.: 202%
[8]
  IC50: 0.18 µM
[9]
  IC50: 1.2 µM
[10]
  HLM % Remaining@ 30 Min: 98%
[11]
  IC50: 0.23 µM
[12]
  apoptotic activity: increased apoptotic activity
